# Assay results taken from patent publication US11261193B2, “Morphic forms of G1T38 and methods of manufacture thereof” (G1 Therapeutics, Inc., priority 2017, dated 2022).
# “Also recorded” adds a separate entry of the source. Where two headings read alike, the source gives them in different places.
# Tests used:
# [1] = Stability study under thermal stress (oven at 60° C. for 7 days); format: physicochemical; conditions: for XRPD pattern / stability after thermal stress: 60° C. for 7 days
# Protocol: Forms A, B, and D were stored in an oven maintained at 60° C. for 7 days.
# [2] = Dynamic vapor sorption (moisture sorption) experiment; format: physicochemical; conditions: for XRPD (post DVS): form by XRPD after moisture sorption, sample dried at 60° C. and 0% RH; for % wt change at 60% RH: moisture adsorbed at 60% RH; for % wt change at 90% RH: moisture adsorbed at 90% RH
# [3] = Twelve-month stability study at 25° C./60% RH; format: physicochemical; conditions: for Appearance / HPLC Purity / Moisture (%) / XRPD: 25° C./60% RH
# Protocol: (§1) Form B was stored at 25° C./60% RH for twelve months and at 40° C./75% RH for six months.
# [4] = Six-month stability study at 40° C./75% RH; format: physicochemical
# Protocol: as §1
# [5] = TG-IR experiment monitoring potential release of hydrogen chloride; format: physicochemical; conditions: heated at 20° C./minute to approximately 140° C.; listed as pure Form B
# Protocol: Thermogravimetric infrared (TG-IR) analysis was performed on a TA Instruments Q5000 IR thermogravimetric (TG) analyzer interfaced to a Magna-IR 560® Fourier transform infrared (FT-IR) spectrophotometer (Thermo Nicolet) equipped with an Ever-Glo mid/far IR source, a potassium bromide (KBr) beamsplitter, and a mercury cadmium telluride (MCT-A) detector. The FT-IR wavelength verification was performed using polystyrene, and the TG calibration standards were nickel and Alumel™. The sample was placed in a platinum sample pan and the pan was inserted into the TG furnace. The TG instrument was started first, immediately followed by the FT-IR instrument. The TG instrument was operated under a flow of helium at 90 and 10 cc/minute for the purge and balance, respectively. The furnace was heated under helium at a rate of 20° C./minute to a final temperature of approximately 140° C. IR spectra were collected approximately every 32 seconds for approximately 7.5 minutes. Each IR spectrum represents 32 co-added scans collected at a spectral resolution of 4 cm-1. Volatiles were identified from a search of the High Resolution Nicolet Vapor Phase spectral library. […]
# RB phosphorylation = conditions: in vitro and in vivo; cited from earlier work
# [6] = tested on: CDK4/6-dependent tumorigenic cell lines including breast, melanoma, leukemia, and lymphoma cells; conditions: variety of CDK4/6-dependent tumorigenic cell lines; cited from earlier work
# [7] = Phase 1a toxicity trial in 75 women; format: in vivo, human
# [8] = Solubility estimate by aliquot addition with visual observation; format: physicochemical; conditions: thermodynamic from solid
# Protocol: Solubility estimates of impure Form B were attempted in various predominantly HCl acidic aqueous acetone solvent mixtures using an aliquot addition method that involved visual observation. Aliquots of various solvents or diluent/organic solvent mixtures were added to measured amounts of impure Form B with agitation (typically sonication) at ambient temperature until complete dissolution was achieved, as judged by visual observation. Solubilities were calculated based on the total solvent used to give a solution; actual solubilities may be greater because of the volume of solvent portions utilized or a slow rate of dissolution. […] If dissolution occurred at the first aliquot, the value was reported as “>”. Due to the haziness of the obtained samples, effective solubility estimates were difficult to discern.
compound,measurement,setting,value
CC(C)N1CCN(c2ccc(Nc3ncc4cc5n(c4n3)C3(CCCCC3)CNC5=O)nc2)CC1 [Form A],XRPD pattern / stability after thermal stress,[1],A new pattern; also recorded: converted to a new Form
same,XRPD after equilibrium at room temperature,[1]; three further days at room temperature after 60° C. for 7 days,converted back to Form A; also recorded: changed back to Form A
same,stability in the moisture sorption experiment,[2],unstable; also recorded: not stable
same,XRPD (post DVS),[2],Form K
same,% wt change at 60% RH,[2],14.9 wt %
same,% wt change at 90% RH,[2],15.8 wt %
CC(C)N1CCN(c2ccc(Nc3ncc4cc5n(c4n3)C3(CCCCC3)CNC5=O)nc2)CC1 [Form B],time stable in long-term stability study,[3]; 25° C. and 60% relative humidity,at least 1 year
same,Appearance,[3]; 0 M,Yellow
same,HPLC Purity,[3]; 0 M,99.5%
same,Moisture (%),[3]; 0 M,4.9%
same,XRPD,[3]; 0 M,Form B
same,Appearance,[3]; 3 M,Yellow solid
same,HPLC Purity,[3]; 3 M,99.5%
same,Moisture (%),[3]; 3 M,4.07%
same,Appearance,[3]; 6 M,Yellow
same,HPLC Purity,[3]; 6 M,99.5%
same,Moisture (%),[3]; 6 M,7.53%
same,Appearance,[3]; 9 M,Yellow solid
same,HPLC Purity,[3]; 9 M,99.6%
same,Moisture (%),[3]; 9 M,7.29%
same,Appearance,[3]; 12 M,Yellow
same,HPLC Purity,[3]; 12 M,99.5%
same,Moisture (%),[3]; 12 M,7.48%
same,XRPD,[3]; 12 M,conformed to the reference spectrum; also recorded: Form B
same,XRPD pattern / stability after thermal stress,[1],stable; also recorded: No change; also recorded: remained unchanged
same,stability in the moisture sorption experiment,[2],stable
same,XRPD (post DVS),[2],remained in Form B; also recorded: remained unchanged as Form B
same,% wt change at 60% RH,[2],5.8 wt %
same,% wt change at 90% RH,[2],5.9 wt %
same,Appearance,[4]; 0 M,Yellow solid
same,HPLC Purity,[4]; 0 M,99.5%
same,Moisture (%),[4]; 0 M,4.9%
same,XRPD,[4]; 0 M,Form B
same,Appearance,[4]; 1 M,Yellow solid
same,HPLC Purity,[4]; 1 M,99.5%
same,Moisture (%),[4]; 1 M,2.75%
same,Appearance,[4]; 3 M,Yellow solid
same,HPLC Purity,[4]; 3 M,99.5%
same,Moisture (%),[4]; 3 M,7.47%
same,XRPD,[4]; 3 M,Form B
same,Appearance,[4]; 6 M,Yellow solid
same,HPLC Purity,[4]; 6 M,99.5%
same,Moisture (%),[4]; 6 M,7.53%
same,XRPD,[4]; 6 M,conformed to the reference spectrum; also recorded: Form B
same,volatiles released during TG-IR,[5],"only water, and no hydrogen chloride, was released"
CC(C)N1CCN(c2ccc(Nc3ncc4cc5n(c4n3)C3(CCCCC3)CNC5=O)nc2)CC1 [Form C],XRPD pattern / stability after thermal stress,[1],remained unchanged
CC(C)N1CCN(c2ccc(Nc3ncc4cc5n(c4n3)C3(CCCCC3)CNC5=O)nc2)CC1 [Form D],XRPD pattern / stability after thermal stress,[1],No change
same,stability in the moisture sorption experiment,[2],unstable; also recorded: not stable
same,XRPD (post DVS),[2],Form K
same,% wt change at 60% RH,[2],4.4 wt %
"CC(C)N1CCN(c2ccc(Nc3ncc4cc5n(c4n3)C3(CCCCC3)CNC5=O)nc2)CC1 [Form G1T38, 2′-((5-(4-isopropylpiperazin-1-yl)pyridin-2-yl)amino)-7′,8′-dihydro-6′H-spiro[cyclohexane-1,9′-pyrazino[1′,2′:1,5]pyrrolo[2,3-d]pyrimidin]-6′-one]",inhibition of RB phosphorylation,RB phosphorylation,inhibits RB phosphorylation
same,inhibition of cell proliferation,[6],induces inhibition of cell proliferation
same,tolerability,[7],well tolerated with no significant adverse events
CC(C)N1CCN(c2ccc(Nc3ncc4cc5n(c4n3)C3(CCCCC3)CNC5=O)nc2)CC1 [Impure Form B],solubility,"[8]; aqueous buffer, 2.0M HCl, ambient, read-out: Solubility",4000 µg/mL
same,solubility,"[8]; aqueous buffer, 5.0M HCl, ambient, read-out: Solubility",3000 µg/mL
same,solubility,"[8]; aqueous buffer, 5.0M HCl:water 1:2, ambient, read-out: Solubility",7000 µg/mL
same,solubility,"[8]; aqueous with cosolvent or surfactant or cyclodextrin, 1M HCl:acetone 50:50, ambient, read-out: Solubility",4000 µg/mL
same,solubility,"[8]; aqueous with cosolvent or surfactant or cyclodextrin, 1M HCl:acetone 60:40, ambient, read-out: Solubility",4000 µg/mL
same,solubility,"[8]; aqueous with cosolvent or surfactant or cyclodextrin, 1M HCl:acetone 67:33, ambient, read-out: Solubility",6000 µg/mL
same,solubility,"[8]; aqueous with cosolvent or surfactant or cyclodextrin, 1.0M HCl:acetone 75:25, ambient, read-out: Solubility",7000 µg/mL
same,solubility,"[8]; aqueous with cosolvent or surfactant or cyclodextrin, predominantly HCl acidic aqueous acetone solvent mixtures, ambient temperature, read-out: solubility in the tested solvent mixtures",3000 to 7000 µg/mL
same,solubility,"[8]; organic solvent or mixture, 0.1M HCl:acetone 20:80, ambient, read-out: Solubility",< 1000 µg/mL
same,solubility,"[8]; organic solvent or mixture, 0.5M HCl:acetone 10:90, ambient, read-out: Solubility",< 1000 µg/mL
same,solubility,"[8]; organic solvent or mixture, 0.5M HCl:acetone 20:80, ambient, read-out: Solubility",< 1000 µg/mL
same,solubility,"[8]; organic solvent or mixture, 1M HCl:acetone 5:95, ambient, read-out: Solubility",< 1000 µg/mL
same,solubility,"[8]; organic solvent or mixture, 1M HCl:acetone 10:90, ambient, read-out: Solubility",< 1000 µg/mL
same,solubility,"[8]; organic solvent or mixture, 1M HCl:acetone 20:80, ambient, read-out: Solubility",< 1000 µg/mL
same,solubility,"[8]; organic solvent or mixture, 1M HCl:acetone 33:67, ambient, read-out: Solubility",2000 µg/mL
same,solubility,"[8]; organic solvent or mixture, Water:acetone 1:2, ambient, read-out: Solubility",3000 µg/mL
same,solubility,"[8]; Water, ambient, read-out: Solubility",< 7000 µg/mL
same,solubility,"[8]; water:acetone 3:1, aqueous with cosolvent or surfactant or cyclodextrin, Water:cetone 3:1, ambient, read-out: Solubility",< 3000 µg/mL
